Values after ≈ are worked out from the molar mass of the structure shown.
How the values were obtained:
Test in all cases: Bacterial growth minimal inhibitory concentration (broth microdilution, CLSI M7-A7)
E. coli ATCC25922 = format: cell-based, Escherichia coli; details: Escherichia coli, ATCC25922; cation-adjusted Mueller-Hinton Broth, microdilution; quinolone-sensitive strain; read-out: MIC for E. coli ATCC25922
Protocol: (§1) Minimal Inhibitory Concentrations (MICs; mg/L) were determined in cation-adjusted Mueller-Hinton Broth by a microdilution method following the description given in “Methods for Dilution Antimicrobial Susceptibility Tests for Bacteria that Grow Aerobically”, Approved standard, 7th ed., Clinical and Laboratory Standards Institute (CLSI) Document M7-A7, Wayne, Pa., USA (2006).
(§2) All Example compounds, except the compound of Example 62, were tested against several Gram-positive and Gram-negative bacteria. […] K. pneumoniae A-651 and Acinetobacter baumannii T6474 are multiply-resistant strains (in particular quinolone-resistant), while E. coli ATCC25922 and P. aeruginosa ATCC27853 are quinolone-sensitive strains.

P. aeruginosa ATCC27853 = format: cell-based, Pseudomonas aeruginosa; details: Pseudomonas aeruginosa, ATCC27853; cation-adjusted Mueller-Hinton Broth, microdilution; quinolone-sensitive strain; read-out: MIC for P. aeruginosa ATCC27853
Protocol: as §1, §2

[1] = system: Acinetobacter baumannii T6474; format: cell-based; details: Acinetobacter baumannii, T6474; cation-adjusted Mueller-Hinton Broth, microdilution; multiply-resistant (quinolone-resistant) strain; read-out: MIC for A. Baumannii T6474
Protocol: as §1, §2

K. pneumoniae A-651 = format: cell-based, Klebsiella pneumoniae; details: Klebsiella pneumoniae, A651; cation-adjusted Mueller-Hinton Broth, microdilution; multiply-resistant (quinolone-resistant) strain; read-out: MIC for K. Pneumoniae A-651
Protocol: as §1, §2

| MIC (E. coli ATCC25922) [µg/mL] | MIC (P. aeruginosa ATCC27853) [µg/mL] | MIC [1] [µg/mL] | MIC (K. pneumoniae A-651) [µg/mL] | SMILES |
| --- | --- | --- | --- | --- |
| ≤ 0.063 | 0.5 (≈ 1.12 µM) | 2 (≈ 4.47 µM) | 0.125 (≈ 0.279 µM) | C[C@@](CCn1cc2cc(C#CC#C[C@H]3C[C@@H]3CO)c(F)cc2n1)(C(=O)NO)S(C)(=O)=O [Example 53, (R)-4-(6-fluoro-5-(((1S,2S)-2-(hydroxymethyl)cyclopropyl)buta-1,3-diyn-1-yl)-2H-indazol-2-yl)-N-hydroxy-2-methyl-2-(methylsulfonyl)butanamide] |
| 0.063 (≈ 0.139 µM) | 2 (≈ 4.4 µM) | 1 (≈ 2.2 µM) | 0.125 (≈ 0.275 µM) | C[C@@](CCn1cc2cc(-c3ccc(-n4nccn4)cc3)ccc2n1)(C(=O)NO)S(C)(=O)=O [Example 12, (R)—N-hydroxy-2-methylsulfonyl-2-methyl-4-[5-(4-[1,2,3]triazol-2-yl-phenyl)-indazol-2-yl]-butanamide] |
| 0.125 (≈ 0.283 µM) | 1 (≈ 2.26 µM) | 0.5 (≈ 1.13 µM) | 0.25 (≈ 0.566 µM) | C[C@@](CCn1cc2cc(C#Cc3ccc(CO)cc3)ccc2n1)(C(=O)NO)S(C)(=O)=O [Example 21, (R)—N-hydroxy-4-(5-((4-(hydroxymethyl)phenyl)ethynyl)-2H-indazol-2-yl)-2-methyl-2-(methylsulfonyl)butanamide] |
| 0.125 | 1 | 2 | 0.25 | C[C@@](CCn1cc2cc(C#Cc3ccc(C4(N)CC4)cc3)ccc2n1)(C(=O)NO)S(C)(=O)=O.O=CO [Example 79, (R)-4-(5-((4-(1-aminocyclopropyl)phenyl)ethynyl)-2H-indazol-2-yl)-N-hydroxy-2-methyl-2-(methylsulfonyl)butanamide formate] |
| 0.25 (≈ 0.544 µM) | 0.25 (≈ 0.544 µM) | 8 (≈ 17.4 µM) | 0.5 (≈ 1.09 µM) | C[C@@](CCn1cc2cc(C#CC#C[C@@H]3C[C@H]3[C@H](O)CO)ccc2n1)(C(=O)NO)S(C)(=O)=O [Example 71, (R)-4-(5-(((1R,2R)-2-((S)-1,2-dihydroxyethyl)cyclopropyl)buta-1,3-diyn-1-yl)-2H-indazol-2-yl)-N-hydroxy-2-methyl-2-(methylsulfonyl)butanamide] |
| 0.5 (≈ 1.2 µM) | 1 (≈ 2.4 µM) | 32 (≈ 76.6 µM) | 0.5 (≈ 1.2 µM) | CC(C)(O)C#CC#Cc1ccc2nn(CC[C@](C)(C(=O)NO)S(C)(=O)=O)cc2c1 [Example 32, (R)—N-hydroxy-4-[5-(5-hydroxy-5-methyl-hexa-1,3-diynyl)-indazol-2-yl]-2-methylsulfonyl-2-methyl-butanamide] |
| 0.5 | 2 | 2 | 0.5 | C[C@@](CCn1cc2cc(C#Cc3ccc(C4(N)COC4)cc3)ccc2n1)(C(=O)NO)S(C)(=O)=O.Cc1ccc(S(=O)(=O)O)cc1 [Example 10, (R)-4-{5-[4-(3-amino-oxetan-3-yl)-phenylethynyl]-indazol-2-yl}-N-hydroxy-2-methylsulfonyl-2-methyl-butanamide toluene-4-sulfonate] |
| 0.125 | 8 | 4 | 0.25 | CC(CCn1cc2cc(-c3ccc(-c4ncco4)cc3)ccc2n1)(C(=O)NO)S(C)(=O)=O.O=CO (racemic) [RE6, (RS)—N-hydroxy-2-methylsulfonyl-2-methyl-4-[5-(4-oxazol-2-yl-phenyl)-indazol-2-yl]-butanamide formic acid salt] |
| 2 (≈ 4.35 µM) | 2 (≈ 4.35 µM) | > 32 | 2 (≈ 4.35 µM) | C[C@@](CCn1cc2cc(C#CC#CC3(O)CCOCC3)ccc2n1)(C(=O)NO)S(C)(=O)=O [Example 15, (R)—N-hydroxy-4-(5-((4-hydroxytetrahydro-2H-pyran-4-yl)buta-1,3-diyn-1-yl)-2H-indazol-2-yl)-2-methyl-2-(methylsulfonyl)butanamide] |
| 0.25 (≈ 0.513 µM) | 2 (≈ 4.1 µM) | 16 (≈ 32.8 µM) | 0.25 (≈ 0.513 µM) | CC(C)(O)c1ccc(C#Cc2ccc3nn(CC[C@](C)(C(=O)NO)S(C)(=O)=O)cc3c2F)cc1 [Example 14, (R)-4-(4-fluoro-5-((4-(2-hydroxypropan-2-yl)phenyl)ethynyl)-2H-indazol-2-yl)-N-hydroxy-2-methyl-2-(methylsulfonyl)butanamide] |
